Reference: article PMC7066191, “Exploiting loss of heterozygosity for allele-selective colorectal cancer chemotherapy” (Nature Communications, 2020)

Experiments:
N-acetyltransferase 2 = target: T1, N-acetyltransferase 2 (Homo sapiens, UniProt P11245); assay: recombinant human NAT2 acetylation kinetics, LC-MS/MS of NAPA; type: biochemical
T1 construct: gene NAT2

ABL2 = ABL2 (Homo sapiens, UniProt P42684); assay: biochemical; design: scanMAX competition binding; kinase recovered on immobilized ligand quantified by qPCR, per cent of control; conditions: read-out: APA (POC)
Description: (§1) The binding affinities of APA and NAPA were evaluated in the scanMAX^sm Kinase Assay Panel (DiscoverX) at a final concentration of 10 µM. The compounds were tested for steric or allosteric binding to kinases in solution. The kinase was captured from the solution through an immobilized kinase-specific ligand and the kinase recovery was quantified. The amount of recovered kinase in the presence or absence of APA or NAPA was measured by quantitative PCR compared with the kinase capture in absence of the compound. Any compound reducing the binding affinity of a kinase to the respective immobilized ligand was scored as a potential hit, and the binding affinity of the compound toward a kinase is interpreted as the difference between the kinase recovery in the absence and presence of the compound. The inhibitory binding constants (Kd) of APA and NAPA to AURKA were evaluated in a KdELECT Kinase Assay (DiscoverX). […] Data acquisition followed the same methodology as for the scanMAX^sm Kinase Assay Panel. 6 Supplementary Figure 4. Kinome inhibition profiles of APA and its NAT2 metabolite NAPA identifies preferential APA kinase targets and differential binding to AURKA a The human kinome was assessed for binding affinity to APA and NAPA at 10 µM concentration (468 kinases in the scanMAX Kinase Assay Panel, DiscoverX). The family stratification of kinases is shown as a cladogram. Circles visualize the binding affinity of NAPA and APA towards each kinase with a higher intensity of blue corresponding to a higher binding affinity. […] One single data point from one experiment at a concentration 18.5 µM of APA was excluded as an outlier. c Thermal shift assay for human recombinant AURKA in the presence of APA and the selective inhibitor S1451. Melting temperatures were obtained by calculating the first derivative of the tryptophan fluorescence ratio at 350 nm and 330 nm and are shown for AURKA in the presence of S1451 (blue) and APA (yellow). Structural similarities between APA and kinase inhibitors[27] prompted investigation of protein kinases as mediators of APA toxicity. […] To enrich for kinase interactions that could explain the preferential killing of slow NAT2 cells, we compared the binding affinity of each kinase with APA and NAPA, selected 44 targets with preferential binding to APA and excluded kinases non-essential for cell survival and those not expressed in CRC cells (Supplementary Fig. 4A, Supplementary Table 4). […] The growth inhibition of RKO and DLD-1 following siRNA-mediated AURKA knockdown (Figs. 3c, d) reflected the relative efficiency of protein downregulation (Supplementary Fig. 5C, D). […] (Supplementary Fig. 4C). AURKA regulates cell cycle progression through association with other centrosome and spindle-associated proteins. Its activation requires auto-phosphorylation at Thr288 and ensures spindle pole integrity, centrosome duplication as well as adequate chromosomal alignment and segregation, while its inhibition leads to multipolar spindles with acentrosomal poles[28],[31]. […] S1451 reduced the fraction of pAURKA levels by >90% regardless of NAT2 expression (Fig. 3f and Su

AURKA = AURKA (Homo sapiens, UniProt O14965); assay: biochemical; design: scanMAX competition binding; kinase recovered on immobilized ligand quantified by qPCR, per cent of control; conditions: read-out: APA (POC)
Description: as §1

CLK1 = CLK1 (Homo sapiens, UniProt P49759); assay: biochemical; design: scanMAX competition binding; kinase recovered on immobilized ligand quantified by qPCR, per cent of control; conditions: read-out: APA (POC)
Description: as §1

CLK2 = CLK2 (Homo sapiens, UniProt P49760); assay: biochemical; design: scanMAX competition binding; kinase recovered on immobilized ligand quantified by qPCR, per cent of control; conditions: read-out: APA (POC)
Description: as §1

CLK4 = CLK4 (Homo sapiens, UniProt Q9HAZ1); assay: biochemical; design: scanMAX competition binding; kinase recovered on immobilized ligand quantified by qPCR, per cent of control; conditions: read-out: APA (POC)
Description: as §1

CSNK2A2 = CSNK2A2 (Homo sapiens, UniProt P19784); assay: biochemical; design: scanMAX competition binding; kinase recovered on immobilized ligand quantified by qPCR, per cent of control; conditions: read-out: APA (POC)
Description: as §1

DYRK2 = DYRK2 (Homo sapiens, UniProt Q92630); assay: biochemical; design: scanMAX competition binding; kinase recovered on immobilized ligand quantified by qPCR, per cent of control; conditions: read-out: APA (POC)
Description: as §1

GSG2 = target: T2, GSG2 (Homo sapiens, UniProt Q8TF76); assay: biochemical; design: scanMAX competition binding; kinase recovered on immobilized ligand quantified by qPCR, per cent of control; conditions: read-out: APA (POC)
T2 construct: gene HASPIN
Description: as §1

IRAK3 = IRAK3 (Homo sapiens, UniProt Q9Y616); assay: biochemical; design: scanMAX competition binding; kinase recovered on immobilized ligand quantified by qPCR, per cent of control; conditions: read-out: APA (POC)
Description: as §1

MAP3K11 = MAP3K11 (Homo sapiens, UniProt Q16584); assay: biochemical; design: scanMAX competition binding; kinase recovered on immobilized ligand quantified by qPCR, per cent of control; conditions: read-out: APA (POC)
Description: as §1

RET = RET (Homo sapiens, UniProt P07949); assay: biochemical; design: scanMAX competition binding; kinase recovered on immobilized ligand quantified by qPCR, per cent of control; conditions: read-out: APA (POC)
Description: as §1

RPS6KA3_Dom1 = target: T3, RPS6KA3_Dom1 (Homo sapiens, UniProt P51812); assay: biochemical; design: scanMAX competition binding; kinase recovered on immobilized ligand quantified by qPCR, per cent of control; conditions: read-out: APA (POC)
T3 construct: gene RPS6KA3; Kin.Dom.1 N-terminal
Description: as §1

TNIK = TNIK (Homo sapiens, UniProt Q9UKE5); assay: biochemical; design: scanMAX competition binding; kinase recovered on immobilized ligand quantified by qPCR, per cent of control; conditions: read-out: APA (POC)
Description: as §1

T3 sequence (P51812 whole entry): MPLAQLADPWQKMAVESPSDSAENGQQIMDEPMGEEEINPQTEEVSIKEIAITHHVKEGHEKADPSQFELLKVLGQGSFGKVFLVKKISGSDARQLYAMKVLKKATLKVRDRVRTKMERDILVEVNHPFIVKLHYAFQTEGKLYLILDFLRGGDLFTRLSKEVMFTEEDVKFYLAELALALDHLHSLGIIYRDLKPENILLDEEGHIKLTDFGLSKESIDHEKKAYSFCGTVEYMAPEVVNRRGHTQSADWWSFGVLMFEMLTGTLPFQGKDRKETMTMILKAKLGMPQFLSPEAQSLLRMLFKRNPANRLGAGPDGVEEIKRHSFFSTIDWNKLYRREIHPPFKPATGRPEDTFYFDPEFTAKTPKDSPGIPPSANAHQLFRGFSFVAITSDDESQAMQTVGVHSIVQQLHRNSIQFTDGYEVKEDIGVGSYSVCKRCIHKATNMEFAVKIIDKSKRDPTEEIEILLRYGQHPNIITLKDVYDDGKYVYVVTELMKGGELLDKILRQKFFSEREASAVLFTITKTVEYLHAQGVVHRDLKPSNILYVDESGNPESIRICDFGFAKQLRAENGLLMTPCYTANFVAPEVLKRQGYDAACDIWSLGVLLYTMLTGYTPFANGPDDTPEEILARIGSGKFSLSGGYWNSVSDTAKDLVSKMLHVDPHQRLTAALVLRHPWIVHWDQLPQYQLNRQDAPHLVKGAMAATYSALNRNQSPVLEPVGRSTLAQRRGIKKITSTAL
IRAK3, sequence (Q9Y616 whole entry): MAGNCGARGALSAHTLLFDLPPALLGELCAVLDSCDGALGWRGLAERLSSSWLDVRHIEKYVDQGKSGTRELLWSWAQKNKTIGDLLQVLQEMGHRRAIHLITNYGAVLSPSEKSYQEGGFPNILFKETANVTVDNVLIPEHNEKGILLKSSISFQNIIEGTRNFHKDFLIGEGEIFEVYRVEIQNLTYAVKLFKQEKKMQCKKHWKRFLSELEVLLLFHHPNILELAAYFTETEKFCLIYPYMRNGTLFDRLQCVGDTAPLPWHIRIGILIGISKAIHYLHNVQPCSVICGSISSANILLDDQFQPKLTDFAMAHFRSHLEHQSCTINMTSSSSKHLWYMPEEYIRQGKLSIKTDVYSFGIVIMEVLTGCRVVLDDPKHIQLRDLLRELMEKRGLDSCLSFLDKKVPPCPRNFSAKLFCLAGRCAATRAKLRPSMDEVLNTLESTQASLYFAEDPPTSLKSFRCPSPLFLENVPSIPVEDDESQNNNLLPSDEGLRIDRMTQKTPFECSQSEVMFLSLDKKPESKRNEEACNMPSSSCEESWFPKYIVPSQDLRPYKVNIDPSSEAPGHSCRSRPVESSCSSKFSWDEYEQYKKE
CLK4, sequence (Q9HAZ1 whole entry): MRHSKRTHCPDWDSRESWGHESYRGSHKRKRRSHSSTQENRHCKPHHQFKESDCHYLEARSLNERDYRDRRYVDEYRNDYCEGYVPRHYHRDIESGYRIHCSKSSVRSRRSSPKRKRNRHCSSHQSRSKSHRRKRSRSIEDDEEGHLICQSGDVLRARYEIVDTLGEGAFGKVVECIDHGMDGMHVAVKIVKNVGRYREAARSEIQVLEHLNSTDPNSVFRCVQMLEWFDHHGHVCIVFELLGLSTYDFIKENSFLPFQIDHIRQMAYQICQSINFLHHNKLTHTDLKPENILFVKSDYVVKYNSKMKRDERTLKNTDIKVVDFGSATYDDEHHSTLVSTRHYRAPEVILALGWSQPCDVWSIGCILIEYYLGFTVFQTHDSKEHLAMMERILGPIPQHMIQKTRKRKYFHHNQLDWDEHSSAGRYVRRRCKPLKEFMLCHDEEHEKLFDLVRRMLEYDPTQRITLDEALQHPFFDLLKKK
ABL2, sequence (P42684 whole entry): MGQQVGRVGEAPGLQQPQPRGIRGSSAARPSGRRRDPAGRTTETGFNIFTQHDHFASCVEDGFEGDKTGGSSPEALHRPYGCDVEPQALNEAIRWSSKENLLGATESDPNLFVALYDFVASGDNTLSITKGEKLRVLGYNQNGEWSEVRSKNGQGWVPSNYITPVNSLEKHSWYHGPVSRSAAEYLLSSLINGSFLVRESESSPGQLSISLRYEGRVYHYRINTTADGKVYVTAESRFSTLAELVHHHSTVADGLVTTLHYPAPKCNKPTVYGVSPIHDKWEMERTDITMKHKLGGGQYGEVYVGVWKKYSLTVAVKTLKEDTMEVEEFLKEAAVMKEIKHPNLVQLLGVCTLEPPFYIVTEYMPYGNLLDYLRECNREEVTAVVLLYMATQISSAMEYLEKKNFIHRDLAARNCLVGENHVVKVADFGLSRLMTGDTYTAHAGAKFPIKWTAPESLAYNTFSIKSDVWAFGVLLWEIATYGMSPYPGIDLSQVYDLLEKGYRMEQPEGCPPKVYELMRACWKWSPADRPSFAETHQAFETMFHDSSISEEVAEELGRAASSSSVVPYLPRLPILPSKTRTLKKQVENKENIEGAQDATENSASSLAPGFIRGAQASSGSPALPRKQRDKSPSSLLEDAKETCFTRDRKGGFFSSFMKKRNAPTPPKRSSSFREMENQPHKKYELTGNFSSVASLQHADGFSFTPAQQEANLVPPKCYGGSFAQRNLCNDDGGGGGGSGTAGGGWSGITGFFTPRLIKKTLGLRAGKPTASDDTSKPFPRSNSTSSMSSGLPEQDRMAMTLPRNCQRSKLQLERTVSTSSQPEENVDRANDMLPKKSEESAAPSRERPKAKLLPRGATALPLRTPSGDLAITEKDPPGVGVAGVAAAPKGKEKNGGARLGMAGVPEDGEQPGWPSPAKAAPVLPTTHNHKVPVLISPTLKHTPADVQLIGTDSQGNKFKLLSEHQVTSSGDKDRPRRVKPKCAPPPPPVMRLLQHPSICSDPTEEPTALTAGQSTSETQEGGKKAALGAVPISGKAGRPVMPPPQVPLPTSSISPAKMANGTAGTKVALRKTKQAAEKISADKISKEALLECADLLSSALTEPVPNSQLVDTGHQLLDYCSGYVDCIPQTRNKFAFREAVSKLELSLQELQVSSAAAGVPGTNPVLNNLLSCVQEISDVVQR
T2 sequence (Q8TF76 whole entry): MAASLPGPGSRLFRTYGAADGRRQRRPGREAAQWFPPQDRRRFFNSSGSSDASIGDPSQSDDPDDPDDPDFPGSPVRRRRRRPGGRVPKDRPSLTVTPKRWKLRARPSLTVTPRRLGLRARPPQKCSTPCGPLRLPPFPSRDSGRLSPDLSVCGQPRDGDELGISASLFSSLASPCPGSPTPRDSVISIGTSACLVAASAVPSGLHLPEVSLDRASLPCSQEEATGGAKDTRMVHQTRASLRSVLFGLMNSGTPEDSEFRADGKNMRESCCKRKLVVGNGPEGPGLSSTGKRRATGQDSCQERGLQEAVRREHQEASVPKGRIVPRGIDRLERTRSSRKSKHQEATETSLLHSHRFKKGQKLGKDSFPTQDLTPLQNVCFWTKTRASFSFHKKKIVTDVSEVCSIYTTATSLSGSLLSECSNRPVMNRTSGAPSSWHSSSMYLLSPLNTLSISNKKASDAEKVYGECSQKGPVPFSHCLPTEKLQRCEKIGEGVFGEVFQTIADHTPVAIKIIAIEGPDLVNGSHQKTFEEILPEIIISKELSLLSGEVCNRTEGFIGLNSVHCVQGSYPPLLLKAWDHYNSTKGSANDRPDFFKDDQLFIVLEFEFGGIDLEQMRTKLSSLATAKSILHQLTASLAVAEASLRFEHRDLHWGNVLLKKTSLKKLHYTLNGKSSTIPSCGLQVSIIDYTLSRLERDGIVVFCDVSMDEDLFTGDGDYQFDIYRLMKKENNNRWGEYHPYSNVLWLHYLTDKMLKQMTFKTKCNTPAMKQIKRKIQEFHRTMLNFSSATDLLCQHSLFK
MAP3K11, sequence (Q16584 whole entry): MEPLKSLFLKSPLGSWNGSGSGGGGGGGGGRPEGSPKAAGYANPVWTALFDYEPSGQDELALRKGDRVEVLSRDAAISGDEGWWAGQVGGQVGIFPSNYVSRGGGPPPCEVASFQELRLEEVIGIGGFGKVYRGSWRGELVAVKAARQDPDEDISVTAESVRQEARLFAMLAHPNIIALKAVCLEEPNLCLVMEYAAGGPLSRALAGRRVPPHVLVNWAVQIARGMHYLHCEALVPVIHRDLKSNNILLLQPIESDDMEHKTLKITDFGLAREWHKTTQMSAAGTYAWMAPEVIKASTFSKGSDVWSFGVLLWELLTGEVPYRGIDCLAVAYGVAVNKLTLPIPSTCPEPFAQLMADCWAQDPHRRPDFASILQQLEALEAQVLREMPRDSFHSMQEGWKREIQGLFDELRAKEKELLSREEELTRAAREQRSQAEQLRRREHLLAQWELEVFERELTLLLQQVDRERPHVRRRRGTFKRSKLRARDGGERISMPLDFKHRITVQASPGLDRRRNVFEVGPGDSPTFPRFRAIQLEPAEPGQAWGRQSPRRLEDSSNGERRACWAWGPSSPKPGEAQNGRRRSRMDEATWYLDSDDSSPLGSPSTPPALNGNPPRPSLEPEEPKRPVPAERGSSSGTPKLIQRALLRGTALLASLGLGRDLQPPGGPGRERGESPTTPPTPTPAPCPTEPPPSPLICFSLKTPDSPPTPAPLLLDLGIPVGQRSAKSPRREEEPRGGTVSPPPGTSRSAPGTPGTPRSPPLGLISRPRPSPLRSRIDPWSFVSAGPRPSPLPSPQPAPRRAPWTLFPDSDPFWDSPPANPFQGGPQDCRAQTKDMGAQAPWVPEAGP
AURKA, sequence (O14965 whole entry): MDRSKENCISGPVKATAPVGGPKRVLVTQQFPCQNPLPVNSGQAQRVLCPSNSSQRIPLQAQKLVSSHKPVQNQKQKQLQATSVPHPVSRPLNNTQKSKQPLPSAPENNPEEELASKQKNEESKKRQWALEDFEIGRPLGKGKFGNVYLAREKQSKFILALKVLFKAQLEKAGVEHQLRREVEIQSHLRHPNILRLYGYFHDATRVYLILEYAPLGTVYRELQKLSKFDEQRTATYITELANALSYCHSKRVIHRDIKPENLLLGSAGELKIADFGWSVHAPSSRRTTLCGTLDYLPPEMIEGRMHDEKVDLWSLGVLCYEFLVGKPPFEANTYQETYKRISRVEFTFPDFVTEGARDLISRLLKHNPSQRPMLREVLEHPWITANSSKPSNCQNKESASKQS

COc1cc(Nc2cncc(-c3ccc(N)cc3)n2)cc(OC)c1OC [APA, 6-(4-aminophenyl)-N-(3,4,5-trimethoxyphenyl)pyrazin-2-amine]
recombinant human NAT2 acetylation kinetics, LC-MS/MS of NAPA (N-acetyltransferase 2): Recombinant assays with human NAT1 and NAT2 further proved APA acetylation to be specifically mediated by NAT2
remaining binding at 10 µM (ABL2): 14%
remaining binding at 10 µM (AURKA): 53%
remaining binding at 10 µM (CLK1): 25%
remaining binding at 10 µM (CLK2): 27%
remaining binding at 10 µM (CLK4): 27%
remaining binding at 10 µM (CSNK2A2): 29%
remaining binding at 10 µM (DYRK2): 63%
remaining binding at 10 µM (GSG2): 6.9%
remaining binding at 10 µM (IRAK3): 46%
remaining binding at 10 µM (MAP3K11): 22%
remaining binding at 10 µM (RET): 24%
remaining binding at 10 µM (RPS6KA3_Dom1): 39%
remaining binding at 10 µM (TNIK): 39%
